Measurements: ChEMBL document CHEMBL1146332, “Parallel solid synthesis of inhibitors of the essential cell division FtsZ enzyme as a new potential class of antibacterials” (Bioorg Med Chem, 2007)
Calls of active or inactive are those of the source. No cut-off for these calls is given here.

What was measured:
[1] = target: T1, Cell division protein FtsZ (Pseudomonas aeruginosa (strain ATCC 15692 / PAO1 / 1C / PRS 101 / LMG12228), UniProt P47204); experiment: Inhibition of Pseudomonas aeruginosa FtsZ GTPase activity by spectrophotometric assay
T1 sequence (P47204 whole entry): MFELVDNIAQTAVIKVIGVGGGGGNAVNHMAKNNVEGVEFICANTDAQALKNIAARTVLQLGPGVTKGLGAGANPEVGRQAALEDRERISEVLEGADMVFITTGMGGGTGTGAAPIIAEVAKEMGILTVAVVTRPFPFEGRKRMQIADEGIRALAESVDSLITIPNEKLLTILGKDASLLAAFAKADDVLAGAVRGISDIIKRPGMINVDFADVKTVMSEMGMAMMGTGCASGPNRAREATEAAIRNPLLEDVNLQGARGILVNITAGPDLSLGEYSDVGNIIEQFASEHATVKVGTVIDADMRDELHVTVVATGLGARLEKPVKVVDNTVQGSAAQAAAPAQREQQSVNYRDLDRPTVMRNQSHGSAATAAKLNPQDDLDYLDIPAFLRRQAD

Escherichia coli = experiment: Antibacterial activity against Escherichia coli ATCC 25922 by disc diffusion method; type: functional, organism-based
Staphylococcus aureus = experiment: Antibacterial activity against Staphylococcus aureus ATCC 25923 at 20 g/L by disc diffusion method; type: functional; settings: for zone of inhibition at 20000 µg/mL: read-out: IZ

Row | SMILES | IC50 [1] [µM] | Activity (Escherichia coli) | zone of inhibition at 20000 µg/mL (Staphylococcus aureus) [mm] | Activity (Staphylococcus aureus)
1 | CCCNC(=O)[C@H](Cn1cnc2c(Cl)nc(N)nc21)NC(=O)N[C@H](C)c1ccccc1 | 1800 | inactive | 11 | –
2 | CCCNC(=O)[C@H](Cn1cnc2c(Cl)nc(N)nc21)NS(=O)(=O)c1ccc(C)cc1 | 2600 | inactive | 11 | –
3 | Nc1nc(Cl)c2ncn(C[C@H](NS(=O)(=O)c3ccccc3)C(=O)O)c2n1 | 1200 | inactive | – | inactive
4 | Nc1nc(Cl)c2ncn(C[C@H](NC(=O)Cc3ccccc3)C(=O)O)c2n1 | 2000 | inactive | – | inactive
5 | C=CCNC(=O)[C@H](Cn1cnc2c(Cl)nc(N)nc21)NS(=O)(=O)c1ccc(C)cc1 | 1700 | inactive | – | inactive
6 | C=CCNC(=O)[C@H](Cn1cnc2c(Cl)nc(N)nc21)NS(C)(=O)=O | 600 | inactive | 28 | –
7 | Nc1nc(Cl)c2ncn(C[C@H](NC(=O)Nc3ccccc3)C(=O)O)c2n1 | 450 | inactive | 10 | –
8 | C=CCNC(=O)[C@H](Cn1cnc2c(Cl)nc(N)nc21)NC(=O)N[C@H](C)c1ccccc1 | 1800 | inactive | – | inactive
9 | NC[C@H]1O[C@H](O[C@H]2[C@H](O)[C@@H](O[C@H]3O[C@H](CO)[C@@H](O)[C@H](N)[C@H]3O)[C@H](N)C[C@@H]2N)[C@H](O)[C@@H](O)[C@@H]1O | – | inactive | – | –
10 | CCCNC(=O)[C@H](Cn1cnc2c(Cl)nc(N)nc21)NS(C)(=O)=O | 700 | inactive | 15 | –
